According to patent US20110144345A1, “SULFOXYIMINO-SUBSTITUTED BENZOYL DERIVATIVE AND HERBICIDE” (NIPPON SODA CO., LTD., priority 2008, published 2011):

What was measured:
[1] = tested on: Echinochloa crus-galli; assay: Paddy pot test, herbicidal effect on Echinochloa crus-galli; type: in vivo; parameters: scale not given here; conditions: Screening, 63 g/ha, applied at 1.5-leaf stage, examined after 3 weeks
Experimental: (§1) Plastic pots having an area of 100 cm^2 and a depth of 10 cm were filled with paddy soil which is puddled by adding water, and seeds of Echinochloa crus-galli and Scirpus juncoides were planted in the pots. After seeding, rice plants at the 2.5-leaf stage were transplanted and the pots were filled with water. The rice plants were grown in a greenhouse. […] The herbicidal effects and harmful effects on the rice plants were examined after 3 weeks. Herbicidal effects were examined according to the examination criteria described below and were represented by the herbicidal index. [table] […] [formula]

[2] = tested on: Scirpus juncoides; assay: Paddy pot test, herbicidal effect on Scirpus juncoides; type: in vivo; parameters: scale not given here; conditions: Screening, 63 g/ha, examined after 3 weeks
Experimental: as §1

[3] = tested on: rice plants; assay: Paddy pot test, harmful effects on transplanted rice plants; type: in vivo; parameters: scale not given here; conditions: Screening, 63 g/ha, applied at Echinochloa crus-galli 1.5-leaf stage, examined after 3 weeks
Experimental: as §1

Row | Compound | Echinochloa crus-galli (herbicidal index) [1] | Scripus juncoides (herbicidal index) [2] | Rice (harmful effects on the rice plants, index) [3] | melting point [°C]
1 | COc1ccc(C(=O)c2c(C)nn(C)c2O)c(Cl)c1N=S1(=O)CCCCC1 [Example 250] | 7 | 8 | 0 | 138 to 140
2 | COc1ccc(C(=O)c2cnn(C)c2O)c(Cl)c1N=S1(=O)CCCC1C (stereo not drawn) [Example 218] | 6 | 7 | 0 | 84 to 86
3 | Cn1ncc(C(=O)c2ccc(OC(F)F)c(N=S3(=O)CCCCC3)c2Cl)c1O [Example 181] | 10 | 9 | 0 | 158 to 161
4 | CCS(=O)(CC)=Nc1c(OC)ccc(C(=O)c2cnn(C)c2O)c1Cl [Example 247] | 10 | 9 | 0 | 165 to 168
5 | COc1c(N=S2(=O)CCCCC2)cccc1C(=O)c1cnn(C)c1O [Example 131] | 6 | 8 | 0 | 121 to 123
6 | Cc1ccc(C(=O)c2c(C)nn(C)c2O)c(C)c1N=S1(=O)CCCCC1 [Example 109] | 7 | 8 | 0 | 122 to 124
7 | CSC(=O)Oc1c(C(=O)c2cccc(N=S3(=O)CCCCC3)c2C)cnn1C [Example 193] | 6 | 7 | 0 | 149 to 151
8 | COc1ccc(C(=O)c2cnn(C)c2O)c(Cl)c1N=S1(=O)CCCC1 [Example 126] | 10 | 8 | 0 | 134 to 136
9 | COc1c(C(=O)c2cnn(C)c2O)ccc(C)c1N=S1(=O)CCCCC1 [Example 135] | 5 | 7 | 0 | 85 to 87
10 | COc1ccc(C(=O)c2cnn(C)c2O)c(F)c1N=S1(=O)CCCCC1 [Example 112] | 8 | 8 | 0 | 107 to 109
11 | COc1ccc(C(=O)c2cnn(C)c2OC(=O)SC)c(Cl)c1N=S1(=O)CCCCC1 [Example 154] | 10 | 8 | 0 | 163 to 165
12 | Cn1ncc(C(=O)c2cccc(N=S3(=O)CCCCC3)c2Br)c1O [Example 196] | 6 | 8 | 0 | 177 to 179
13 | COc1ccc(C(=O)c2cnn(C)c2[O-])c(Cl)c1N=S1(=O)CCCCC1.[Na+] [Example 115] | 10 | 8 | 0 | 224 to 226
14 | COc1ccc(C(=O)c2cnn(C)c2O)c(OC)c1N=S1(=O)CCOCC1 [Example 133] | 6 | 7 | 0 | 72 to 74
15 | CC(C)c1ccc(C(=O)c2cnn(C)c2O)c(Cl)c1N=S1(=O)CCCCC1 [Example 208] | 8 | 7 | 0 | 102 to 104
16 | COc1ccc(C(=O)C2=C(O)CCCC2=O)c(Cl)c1N=S1(=O)CCCC1 [Example 127] | 8 | 8 | 0 | 153 to 155

Row | Compound | Echinochloa crus-galli (herbicidal index) [1] | Scripus juncoides (herbicidal index) [2] | Rice (harmful effects on the rice plants, index) [3] | melting point [°C]
17 | COc1ccc(C(=O)c2cnn(C)c2O)c(Cl)c1N=S(C)(=O)C(C)C (stereo not drawn) [Example 210] | 6 | 9 | 0 | 167 to 169
18 | COc1ccc(C(=O)c2cnn(C)c2O)c(Cl)c1N=S(C)(C)=O [Example 150] | 5 | 8 | 0 | 164 to 166
19 | COc1ccc(C(=O)C2=C(O)CCCC2=O)c(Cl)c1N=S(C)(C)=O [Example 149] | 5 | 6 | 0 | 150 to 152
20 | COC(=O)c1ccc(C(=O)c2cnn(C)c2O)c(Cl)c1N=S(C)(C)=O [Example 161] | 9 | 8 | 0 | 115 to 125
21 | C#CCOc1c(C(=O)c2ccc(OC)c(N=S3(=O)CCCCC3)c2Cl)cnn1C [Example 123] | 7 | 5 | 0 | 146 to 148
22 | CCn1ncc(C(=O)c2ccc(C#N)c(N=S3(=O)CCCCC3)c2Cl)c1O [Example 187] | 10 | 5 | 0 | 159 to 161
23 | COc1ccc(C(=O)c2cnn(C)c2OC(=O)c2ccc([N+](=O)[O-])cc2)c(Cl)c1N=S1(=O)CCCCC1 [Example 139] | 10 | 8 | 0 | 151 to 154
24 | COc1ccc(C(=O)c2cnn(C)c2O)c(OC)c1N=S1(=O)CCCC1 [Example 198] | 5 | 7 | 0 | 151 to 153
25 | Cc1c(N=S2(=O)CCCCC2)cccc1C(=O)c1cnn(C)c1O [Example 191] | 6 | 7 | 0 | 166 to 168
26 | COc1c(N=S2(=O)CCCCC2)cccc1C(=O)c1cnn(C)c1OCc1ccc2ccccc2c1 [Example 132] | 6 | 8 | 0 | –
27 | COc1ccc(C(=O)C2=C(O)CCCC2=O)c(Cl)c1N=S(C)(=O)Cc1ccccc1 (stereo not drawn) [Example 120] | 8 | 5 | 0 | –
28 | COC(=O)c1ccc(C(=O)c2cn(C(=O)SC)n(C)c2=O)c(Cl)c1N=S1(=O)CCCCC1 [Example 153] | 7 | 8 | 0 | –
29 | CCn1ncc(C(=O)c2ccc(OC)c(N=S3(=O)CCCC3)c2Cl)c1O [Example 128] | 10 | 8 | 0 | 171 to 173
30 | COc1ccc(C(=O)c2cnn(C)c2OCc2ccc3ccccc3c2)c(F)c1N=S1(=O)CCCCC1 [Example 113] | 7 | 6 | 0 | –
31 | O=C1CCCC(O)=C1C(=O)c1ccc(OC(F)F)c(N=S2(=O)CCCCC2)c1Cl [Example 179] | 7 | 7 | 1 | 125 to 127
32 | Cc1ccc(C(=O)c2c(C)nn(C)c2OCc2ccc3ccccc3c2)c(C)c1N=S1(=O)CCCCC1 [Example 111] | 6 | 8 | 0 | –
